The text below walks through data of patent US12029739B2, “SHP2 inhibitor and use thereof” (KANAPH THERAPEUTICS INC., priority 2021, dated 2024).

pIC50: −log10 of the molar value. Read-outs that look alike come from different tables or passages of the source.

Assay [1] has as its system phospho-ERK in MIA PaCa2 or H358 cells. In words: Phospho-ERK assay (AlphaLisa). The assay is classed as cell-based. The settings on record: for pIC50: MIA PaCa2 or H358 cells, compound incubated 1.5 hours, read-out: IC50 (p-ERK); for IC50: read-out: IC50 (p-ERK, nM). For orientation: Alpha assays give light when donor and acceptor beads are brought close together.
The target in a further assay is T1, SHP2 (full length) (Homo sapiens, UniProt Q06124).
T1 construct: SHP2 (full length, diluted to 100 pM final concentration in reaction buffer, BPS bioscience, US); purchased BPS bioscience, US
T1 sequence (Q06124 1-593): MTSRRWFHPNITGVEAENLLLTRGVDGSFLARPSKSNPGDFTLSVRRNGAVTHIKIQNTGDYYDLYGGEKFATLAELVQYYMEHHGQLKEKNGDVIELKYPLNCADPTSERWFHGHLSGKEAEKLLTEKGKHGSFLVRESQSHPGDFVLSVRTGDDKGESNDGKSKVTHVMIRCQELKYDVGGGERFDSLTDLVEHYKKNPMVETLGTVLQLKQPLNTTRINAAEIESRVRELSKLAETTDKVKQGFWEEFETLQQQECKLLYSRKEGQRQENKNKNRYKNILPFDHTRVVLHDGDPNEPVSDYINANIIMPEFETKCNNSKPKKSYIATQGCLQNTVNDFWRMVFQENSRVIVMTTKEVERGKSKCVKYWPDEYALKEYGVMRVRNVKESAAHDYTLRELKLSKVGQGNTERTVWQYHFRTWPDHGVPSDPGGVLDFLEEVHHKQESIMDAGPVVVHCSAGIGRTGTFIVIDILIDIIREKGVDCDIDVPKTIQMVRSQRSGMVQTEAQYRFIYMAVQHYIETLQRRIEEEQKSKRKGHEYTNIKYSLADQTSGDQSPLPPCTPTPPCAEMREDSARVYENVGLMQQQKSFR
Put plainly: Phosphatase assay (PTPase assay) with DiFMUP substrate. The format is biochemical. To be noted: SHP2 activated with SHP2 activating peptide, DiFMUP 80 μM, 2 hours, fluorescence; for pIC50: read-out: IC50 (PTPase aS say); for IC50: IC50 (PTPase aS say, nM).

With `CC1(CN)CCN(c2cnc(Sc3ccc4ncn(Cc5ccccc5)c(=O)c4c3Cl)cn2)CC1` [Example 13, 6-((5-(4-(aminomethyl)-4-methylpiperidin-1-yl)pyrazin-2-yl)thio)-3-benzyl-5-chloroquinazolin-4(3H)-one], the values for the pIC50 (in assay [1]; on SHP2 (full length)) were 5.82 to 7.35 and 7.00 to 8.52, respectively.
Take `N[C@@H]1c2cccnc2CC12CCN(c1cnc(Sc3ccc4ncn(CC5(F)COC5)c(=O)c4c3Cl)cn1)CC2` [Example 140, (S)-6-((5-(5-amino-5,7-dihydrospiro[yclopenta[b]pyridine-6,4′-piperidin]-1′-yl)pyrazin-2-yl)thio)-5-chloro-3-((3-fluorooxetan-3-yl)methyl)quinazolin-4(3H)-one]: the pIC50 (as a rule, the IC50 on a negative log10 scale, so that one unit is a factor of ten) is greater than 7.35 in assay [1] (1.5 h) and greater than 8.52 on SHP2 (full length).
In the same order, the values of `Cn1c(N2CCN(C[C@H](N)Cc3ccncc3)CC2)nc(N)c(Sc2cccc(Cl)c2Cl)c1=O` [Example 186, (R)-6-amino-2-(4-(2-amino-3-(pyridin-4-yl)propyl)piperazin-1-yl)-5-((2,3-dichlorophenyl)thio)-3-methylpyrimidin-4(3H)-one] are 5.82 to 7.35 and less than 7.00.
The corresponding values for `N[C@@H]1c2cccnc2CC12CCN(c1cnc(Sc3ccc4ncn(Cc5cccnc5)c(=O)c4c3Cl)cn1)CC2` [Example 105, (S)-6-((5-(5-amino-5,7-dihydrospiro[yclopenta[b]pyridine-6,4′-piperidin]-1′-yl)pyrazin-2-yl)thio)-5-chloro-(3-pyridin-3-ylmethyl)quinazolin-4(3H)-one] are greater than 7.35 and greater than 8.52.
In the same order, the values of `C[C@@H]1OCC2(CCN(c3cnc(Sc4ccc5ncn(CC6=CCOCC6)c(=O)c5c4Cl)cn3)CC2)[C@@H]1N` [Example 117, 6-((5-(3S,4S)-4-amino-3-methyl-2-oxa-8-azaspiro[4,5]decan-8-yl)pyrazin-2-yl)thio)-5-chloro-(3-((3,6-dihydro-2H-pyran-4-yl)methyl)quinazolin-4(3H)-one] are 5.82 to 7.35 and 7.00 to 8.52.
Regarding `C[C@@H]1OCC2(CCN(c3cnc(Sc4ccc5c(c4Cl)S(=O)(=O)N(Cc4ccccc4)C=N5)cn3)CC2)[C@@H]1N` [Example 124, 7-((5-((3S,4S)-4-amino-3-methyl-2-oxa-8-azaspiro[4,5]decan-8-yl)pyrazin-2-yl)thio)-2-benzyl-8-chloro-2H-benzo[e][1,2,4]thiadiazine 1,1-dioxide], the pIC50 in assay [1] (1.5 h) was greater than 7.35; on SHP2 (full length), greater than 8.52.
In the same order, the values of `Cn1c(N2CCC(C)(N)CC2)nc(N)c(Sc2ccc3ncn(-c4ccccc4)c(=O)c3c2Cl)c1=O` [Example 30, 6-((4-amino-2-(4-amino-4-methylpiperidin-1-yl)-1-methyl-6-oxo-1,6-dihydropyrimidin-5-yl)thio)-5-chloro-3-phenylquinazolin-4(3H)-one] are less than 5.82 and less than 7.00.
The corresponding values for `COCCn1cnc2ccc(Sc3cnc(N4CCC5(CC4)Cc4ncsc4[C@H]5N)c(CO)n3)c(Cl)c2c1=O` [Example 169, (S)-6-((5-(6-amino-4,6-dihydrospiro[yclopenta[d]thiazole-5,4′-piperidin]-1′-yl)-6-(hydroxymethyl)pyrazin-2-yl)thio)-5-chloro-3-(2-methoxyethyl)quinazolin-4(3H)-one] are greater than 7.35 and greater than 8.52.
Turning to `C[C@@H]1OCC2(CCN(c3cnc(Sc4ccc5ncn(Cc6cccc(O)c6)c(=O)c5c4Cl)cn3)CC2)[C@@H]1N` [Example 66, 6-((5-((3S,4S)-4-amino-3-methyl-2-oxa-8-azaspiro[4.5]decan-8-yl)pyrazin-2-yl)thio)-5-chloro-3-(3-hydroxybenzyl)quinazolin-4(3H)-one], the pIC50 is greater than 7.35 in assay [1] (1.5 h) and greater than 8.52 at SHP2 (full length).
Consider `CC1(CN)CCN(c2cnc(Sc3ccc4ncn(Cc5cccc(S(=O)(=O)F)c5)c(=O)c4c3Cl)cn2)CC1` [Example 16, 3-((6-((5-(4-(aminomethyl)-4-methylpiperidin-1-yl)pyrazin-2-yl)thio)-5-chloro-4-oxoquinazolin-3(4H)-yl)methyl)benzenesulfonyl fluoride], for which the IC50 (as a rule, the concentration at which inhibition is half-maximal) in assay [1] (1.5 h) is 45 to 1500 nM; against SHP2 (full length), less than 3 nM.
Turning to `CC(C)(O)Cn1cnc2ccc(Sc3cnc(N4CCC5(CC4)Cc4scnc4[C@@H]5N)cn3)c(Cl)c2c1=O` [Example 152, 6-[5-[(4R)-4-aminospiro[4,6-dihydrocyclopenta[d]thiazole-5,4′-piperidin]-1′-yl]pyrazin-2-yl]sulfanyl-5-chloro-3-(2-hydroxy-2-methyl-propyl)quinazolin-4-one], the pIC50 in assay [1] (1.5 h) was 5.82 to 7.35; at SHP2 (full length), 7.00 to 8.52.
With `COc1ccc(C)cc1Cn1cnc2ccc(Sc3cnc(N4CCC5(CC4)CO[C@@H](C)[C@H]5N)cn3)c(Cl)c2c1=O` [Example 93, 6-((5-((3S,4S)-4-amino-3-methyl-2-oxa-8-azaspiro[4.5]decan-8-yl)pyrazin-2-yl)thio)-5-chloro-3-(2-methoxy-5-methylbenzyl)quinazolin-4(3H)-one], the pIC50 was greater than 7.35 in assay [1] (1.5 h) and greater than 8.52 on SHP2 (full length).
The corresponding values for `COc1cccc(Cn2cnc3ccc(Sc4cnc(N5CCC6(CC5)CO[C@@H](C)[C@H]6N)cn4)c(Cl)c3c2=O)c1` [Example 36, 6-((5-((3S,4S)-4-amino-3-methyl-2-oxa-8-azaspiro[4.5]decan-8-yl)pyrazin-2-yl)thio)-5-chloro-3-(3-methoxybenzyl)quinazolin-4(3H)-one] are greater than 7.35 and greater than 8.52.
The corresponding values for `C[C@@H]1OCC2(CCN(c3cnc(Sc4ccc5nn(Cc6ccccc6)cc5c4Cl)cn3)CC2)[C@@H]1N` [Example 49, (3S,4S)-8-(5-((2-benzyl-4-chloro-2H-indazol-5-yl)thio)pyrazin-2-yl)-3-methyl-2-oxa-8-azaspiro[4.5]decan-4-amine] are less than 5.82 and 7.00 to 8.52.
On to `CC1(N)CCN(c2cnc(Sc3cccc(S(=O)(=O)F)c3Cl)cn2)CC1` [Example 7, 3-((5-(4-amino-4-methylpiperidin-1-yl)pyrazin-2-yl)thio)-2-chlorobenzenesulfonyl fluoride], for which the IC50 in assay [1] (1.5 h) fell in the range of 45 to 1500 nM; against SHP2 (full length) it was 3 to 100 nM.
Regarding `COCCn1cnc2ccc(Sc3cnc(N4CCC5(CC4)Cc4nc(Cl)sc4[C@H]5N)cn3)c(Cl)c2c1=O` [Example 161, 6-[5-[(6S)-6-amino-2-chloro-spiro[4,6-dihydrocyclopenta[d]thiazole-5,4′-piperidin]-1′-yl]pyrazin-2-yl]sulfanyl-5-chloro-3-(2-methoxyethyl)quinazolin-4-one], the values for the pIC50 (in assay [1] (1.5 h); at SHP2 (full length)) were greater than 7.35 and greater than 8.52, respectively.
With `CC(=O)Cn1cnc2ccc(Sc3cnc(N4CCC5(CC4)Cc4ncccc4[C@H]5N)cn3)c(Cl)c2c1=O` [Example 112], the pIC50 in assay [1] was greater than 7.35; at SHP2 (full length) it was greater than 8.52.
Take `C[C@@H]1OCC2(CCN(c3cnc(Sc4ccc5ncn(Cc6ccccc6F)c(=O)c5c4Cl)cn3)CC2)[C@@H]1N` [Example 43, 6-((5-((3S,4S)-4-amino-3-methyl-2-oxa-8-azaspiro[4.5]decan-8-yl)pyrazin-2-yl)thio)-5-chloro-3-(2-fluorobenzyl)quinazolin-4(3H)-one]: the pIC50 in assay [1] (1.5 h) was greater than 7.35; at SHP2 (full length), greater than 8.52.
As for `C[C@@H]1OCC2(CCN(c3cnc(Sc4ccc5ncn(Cc6ccoc6)c(=O)c5c4Cl)cn3)CC2)[C@@H]1N` [Example 119], the values for the pIC50 (in assay [1] (1.5 h); on SHP2 (full length)) were greater than 7.35 and greater than 8.52, respectively.
Consider `COCCn1cnc2ccc(Sc3cnc(N4CCC5(CC4)Cc4ccc(OC)cc4[C@H]5N)cn3)c(Cl)c2c1=O` [Example 158, 6-[5-[(1S)-1-amino-6-methoxy-spiro[indane-2,4′-piperidin]-1′-yl]pyrazin-2-yl]sulfanyl-5-chloro-3-(2-methoxyethyl)quinazolin-4-one], for which the values for the pIC50 (in assay [1] (1.5 h); at SHP2 (full length)) were greater than 7.35 and greater than 8.52, respectively.
In the same order, the values of `Cn1c(N2CCN(CC(N)CCc3ccccc3)CC2)nc(N)c(Sc2cccc(Cl)c2Cl)c1=O` (stereo not shown) [Example 189, 6-amino-2-(4-(2-amino-4-phenylbutyl)piperazin-1-yl)-5-((2,3-dichlorophenyl)thio)-3-methylpyrimidin-4(3H)-one] are less than 5.82 and less than 7.00.
In the same order, the values of `CC(C)(O)Cn1cnc2ccc(Sc3cnc(N4CCC5(CC4)Cc4ncsc4[C@H]5N)cn3)c(Cl)c2c1=O` [Example 147, 6-[5-[(6S)-6-aminospiro[4,6-dihydrocyclopenta[d]thiazole-5,4′piperidin]1′-yl]pyrazin-2-yl]sulfanyl-5-chloro-3-(2-hydroxy-2-methyl-propyl)quinazolin-4-one] are greater than 7.35 and greater than 8.52.
The corresponding values for `C[C@@H]1OCC2(CCN(c3cnc(Sc4ccc5ncn(CC6CNC(=O)O6)c(=O)c5c4Cl)cn3)CC2)[C@@H]1N` (stereo partly shown) [Example 118] are greater than 7.35 and greater than 8.52.
